Assays:
[1] = target: Voltage-gated inwardly rectifying potassium channel KCNH2 (Homo sapiens, UniProt Q12809); assay: Safety Test: The effect of test compounds on hERG potassium channel were determined using Predictor hERG Fluorescence Polarization Assay at concentrations of 3, 10, and 30 μM.
CYP2D6 = CYP2D6 (Homo sapiens, UniProt P10635); assay: (§1) As such, the compound of the present invention has no significant inhibitory effect on CYP1A2, CYP2D6 and CYP3A4, and thus has no safety issue caused by metabolism interactions among different drugs due to inhibition of the enzymes.
CYP3A4 = CYP3A4 (Homo sapiens, UniProt P08684); assay: as §1
Cytochrome P450 1A2 = target: T1, Cytochrome P450 1A2 (Homo sapiens, UniProt P05177); assay: as §1
T1 sequence (P05177 whole entry): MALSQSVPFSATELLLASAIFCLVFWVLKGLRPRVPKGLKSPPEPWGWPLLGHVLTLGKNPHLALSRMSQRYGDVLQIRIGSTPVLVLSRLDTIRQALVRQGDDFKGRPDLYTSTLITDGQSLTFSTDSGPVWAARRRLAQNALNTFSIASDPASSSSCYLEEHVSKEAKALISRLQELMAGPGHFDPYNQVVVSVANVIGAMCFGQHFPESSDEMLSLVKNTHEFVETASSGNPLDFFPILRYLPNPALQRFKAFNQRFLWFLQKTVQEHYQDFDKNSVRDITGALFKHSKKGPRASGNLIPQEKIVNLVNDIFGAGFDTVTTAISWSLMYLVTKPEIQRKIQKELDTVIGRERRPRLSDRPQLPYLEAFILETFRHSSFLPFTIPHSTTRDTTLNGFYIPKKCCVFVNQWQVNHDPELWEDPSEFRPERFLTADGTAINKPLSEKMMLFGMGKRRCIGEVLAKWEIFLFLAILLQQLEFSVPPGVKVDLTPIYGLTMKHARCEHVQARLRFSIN

Sequence of CYP3A4 (P08684 whole entry): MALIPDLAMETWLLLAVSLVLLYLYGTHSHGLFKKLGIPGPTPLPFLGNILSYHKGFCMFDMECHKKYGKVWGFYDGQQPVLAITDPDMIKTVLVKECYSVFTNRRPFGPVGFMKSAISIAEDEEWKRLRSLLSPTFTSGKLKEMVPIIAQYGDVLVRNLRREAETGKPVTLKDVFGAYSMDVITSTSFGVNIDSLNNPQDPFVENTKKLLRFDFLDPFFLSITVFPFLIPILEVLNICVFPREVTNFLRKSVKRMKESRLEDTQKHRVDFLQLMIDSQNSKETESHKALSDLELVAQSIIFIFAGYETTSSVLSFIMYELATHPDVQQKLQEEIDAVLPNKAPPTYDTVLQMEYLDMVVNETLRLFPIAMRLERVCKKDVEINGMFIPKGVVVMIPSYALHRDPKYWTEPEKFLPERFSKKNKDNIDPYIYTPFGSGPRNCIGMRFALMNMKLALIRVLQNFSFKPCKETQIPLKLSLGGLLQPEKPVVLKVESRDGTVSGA
Sequence of Voltage-gated inwardly rectifying potassium channel KCNH2 (Q12809 whole entry): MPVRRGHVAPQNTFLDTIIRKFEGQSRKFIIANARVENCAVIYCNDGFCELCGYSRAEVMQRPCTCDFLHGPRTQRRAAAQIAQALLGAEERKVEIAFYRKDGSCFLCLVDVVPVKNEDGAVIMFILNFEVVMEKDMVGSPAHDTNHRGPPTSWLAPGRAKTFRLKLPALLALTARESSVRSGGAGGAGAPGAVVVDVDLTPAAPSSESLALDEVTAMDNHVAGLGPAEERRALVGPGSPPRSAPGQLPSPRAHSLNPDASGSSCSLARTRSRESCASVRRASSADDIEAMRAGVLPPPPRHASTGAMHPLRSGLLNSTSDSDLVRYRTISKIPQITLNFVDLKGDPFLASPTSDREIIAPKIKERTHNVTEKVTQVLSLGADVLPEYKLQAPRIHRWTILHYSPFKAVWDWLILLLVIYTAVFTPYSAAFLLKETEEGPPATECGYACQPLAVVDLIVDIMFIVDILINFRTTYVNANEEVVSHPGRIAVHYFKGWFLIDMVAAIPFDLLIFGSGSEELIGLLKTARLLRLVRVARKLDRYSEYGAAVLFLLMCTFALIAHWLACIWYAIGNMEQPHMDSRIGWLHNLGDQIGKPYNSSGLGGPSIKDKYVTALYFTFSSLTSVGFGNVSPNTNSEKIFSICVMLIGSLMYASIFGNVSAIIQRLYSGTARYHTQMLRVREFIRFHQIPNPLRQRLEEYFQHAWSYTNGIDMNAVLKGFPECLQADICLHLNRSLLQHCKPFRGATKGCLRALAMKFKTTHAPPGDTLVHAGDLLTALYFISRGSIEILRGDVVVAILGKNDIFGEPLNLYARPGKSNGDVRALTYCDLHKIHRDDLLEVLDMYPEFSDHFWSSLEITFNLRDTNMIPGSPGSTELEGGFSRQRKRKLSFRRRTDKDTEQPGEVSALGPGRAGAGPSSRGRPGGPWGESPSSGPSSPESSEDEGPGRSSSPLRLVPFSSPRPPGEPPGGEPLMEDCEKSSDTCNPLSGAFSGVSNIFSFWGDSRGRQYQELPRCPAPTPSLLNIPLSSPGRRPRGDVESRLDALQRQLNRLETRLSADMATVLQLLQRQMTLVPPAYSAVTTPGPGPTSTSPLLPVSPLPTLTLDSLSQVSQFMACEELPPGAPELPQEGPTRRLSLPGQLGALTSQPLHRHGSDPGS
Sequence of CYP2D6 (P10635 whole entry): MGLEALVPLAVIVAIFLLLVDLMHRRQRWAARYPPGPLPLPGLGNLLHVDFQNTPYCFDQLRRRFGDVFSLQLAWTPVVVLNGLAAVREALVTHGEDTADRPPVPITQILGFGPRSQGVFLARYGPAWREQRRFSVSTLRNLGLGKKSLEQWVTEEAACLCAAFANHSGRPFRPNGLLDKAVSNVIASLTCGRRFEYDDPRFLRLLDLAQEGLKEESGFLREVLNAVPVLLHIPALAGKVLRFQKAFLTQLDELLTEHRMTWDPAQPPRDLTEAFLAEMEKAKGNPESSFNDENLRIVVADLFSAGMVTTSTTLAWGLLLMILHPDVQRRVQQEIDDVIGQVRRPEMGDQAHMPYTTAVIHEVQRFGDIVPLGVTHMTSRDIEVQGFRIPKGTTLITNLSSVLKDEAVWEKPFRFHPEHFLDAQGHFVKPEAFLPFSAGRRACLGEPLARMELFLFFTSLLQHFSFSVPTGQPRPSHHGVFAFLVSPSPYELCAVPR

In the case of `Cc1nn(C2(CC#N)CN(S(=O)(=O)C(C)C)C2)cc1-c1ncnc2[nH]ccc12`, the IC50 [1] is reported as > 30 µM, the IC50 (CYP2D6) is reported as > 10 µM and the IC50 (CYP3A4) is reported as > 10 µM. For the same compound, the IC50 (Cytochrome P450 1A2) was > 10 µM.

— ChEMBL document CHEMBL5728557, “Azetidine derivative, preparation method therefor, and use thereof” (2021)
